What all share (assay): NCI-60 cell line screen, 48 h
In experiment [1] the test system is SK-MEL-28.
Experiment [2] has as its system NCI-H226.
For experiment [3], the system named is T47D.
The test system of experiment [4] is EKVX.
Experiment [5] has as its system OVCAR-4.
Experiment [6] deals with SF-268.
The subject of experiment [7] is M14.
The test system of experiment [8] is SF-539.
The test system of experiment [9] is Hs-578T.
The test system of experiment [10] is HOP-62.
Experiment [11] has as its system HOP-92.
Experiment [12] has as its system NCI/ADR-RES.
For experiment [13], the system named is 786-0.
For experiment [14], the system named is NCI-H460.
Experiment [15] relates to RXF 393.
Experiment [16] relates to TK-10.
Experiment [17] has as its system HCT-15.
Experiment [18] relates to SK-OV-3.
Experiment [19] has as its system SK-MEL-2.
In experiment [20] the test system is IGROV-1.

The structures appear in SMILES notation. Values joined by “and” are separate entries in the source; they are usually repeats but may differ in a detail not shown here. Identical values can stand only once.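 All cell lines were grown in 96-well plates and treated with compound for 48 hours. GI50 is the concentration that inhibits growth by half.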 Active and inactive are the calls of the source. Rule as the data show it: active = GI50 up to about 1.1 µM and inactive = higher.

Consider `Cc1[nH]c(C)c(CN(C)C)c1CN(C)C`, for which the GI50 in experiment [1], in [2], in [3], in experiment [4], in experiment [5] and in experiment [6] was > 100 µM (inactive) each time. For the same compound, the GI50 in experiment [7], in experiment [8], in experiment [9], in experiment [10], in experiment [11] and in [12] was > 100 µM (inactive) in each case. The GI50 in experiment [13] was > 100 µM (inactive); in experiment [14] it was > 100 µM (inactive); in experiment [15], > 100 µM (inactive); in experiment [16], > 100 µM (inactive); in experiment [17], greater than 100 µM; in experiment [18], > 100 µM (inactive). Further, the GI50 in [19] and in experiment [20] was > 100 µM (inactive) each time.
Turning to `CN1CCc2cc(N)cc3c2C1Cc1ccc(O)c(O)c1-3` (stereo not given), the GI50 was 35.6 µM (inactive) in experiment [1]; 32.7 µM (inactive) in experiment [2]; 61.8 µM (inactive) in [3]; 43.6 µM (inactive) in experiment [4]; 31.6 µM (inactive) in experiment [5]; 6.43 µM (inactive) in experiment [6]. Further, the GI50 in experiment [7] is 34 µM (inactive); in experiment [8], 38 µM (inactive); in experiment [9], 53.5 µM (inactive); in experiment [10], 49.3 µM (inactive); in experiment [11] it was 51.2 µM (inactive); in [12], 36.8 µM (inactive). For the same compound, the GI50 in experiment [13] is 33 µM (inactive); in [14], 30.5 µM (inactive); in [15], 55.7 µM (inactive); in experiment [16], 24.7 µM (inactive); in experiment [17] it was 36.4 µM; in experiment [18] it was 52.7 µM (inactive). Also, the values for the GI50 in experiment [19] and in [20] were 40.9 µM (inactive) and 33.7 µM (inactive), respectively.
With `CCCCCCCCCCCC(=O)OC[C@@H](C[As](=O)(O)O)OC(=O)CCCCCCCCCCC`, the GI50 is 4.54 µM (inactive) in experiment [1]; 16.4 µM (inactive) in [2]; 12.6 µM (inactive) in experiment [3]; 13.7 µM (inactive) in experiment [4]; 14.2 µM (inactive) in [5]; 5.15 µM (inactive) in experiment [6]. The GI50 was 2.49 µM (inactive) in [7]; 12.6 µM (inactive) in [8]; 3.93 µM (inactive) in [9]; 9.95 µM (inactive) in [10]; 1.71 µM (inactive) in [11]; 17.3 µM (inactive) in experiment [12]. For the same compound, the GI50 in experiment [13] was 13.4 µM (inactive); in [14], 3.61 µM (inactive); in experiment [15], 2.43 µM (inactive); in experiment [16], 11.6 µM (inactive); in experiment [17] it was 9.04 µM; in experiment [18], 12.4 µM (inactive). Further, the GI50 is 2.69 µM (inactive) in [19] and 1.85 µM (inactive) in experiment [20].
In the case of `OC(c1ccccc1)c1c(-c2ccccc2)oc(-c2ccccc2)c1C(O)c1ccccc1` (stereo not given), the GI50 was 14.2 µM (inactive) in experiment [1]; 7.4 µM (inactive) in [2]; 6.28 µM (inactive) in experiment [3]; 5.75 µM (inactive) in experiment [4]; < 0.01 µM (active) in [5]; 12 µM (inactive) in [6]. The GI50 in experiment [7] is 10 µM (inactive); in [8], 16.7 µM (inactive); in experiment [9], 13.5 µM (inactive); in experiment [10], 14.4 µM (inactive); in experiment [11], 13.4 µM (inactive); in experiment [12] it was 9.02 µM (inactive). The GI50 in [13] was 9.06 µM (inactive); in [14], 8.15 µM (inactive); in experiment [15], 6.5 µM (inactive); in experiment [16] it was 15.6 µM (inactive); in [17], 12.1 µM; in [18], 14.7 µM (inactive). In addition, the GI50 is 14.2 µM (inactive) in [19] and 14 µM (inactive) in experiment [20].
Regarding `Fc1cc(-c2cc(-c3ccc4c(c3)OCO4)n[nH]2)c(Cl)cc1Cl`, the GI50 in [1] was 5.22 µM (inactive); in experiment [2], 1.99 µM (inactive); in [3] it was 2.2 µM (inactive); in experiment [4] it was 1.75 µM (inactive); in experiment [5], 1.91 µM (inactive); in experiment [6] it was 3.24 µM (inactive). Moreover, the GI50 in [7] was 4.75 µM (inactive); in experiment [8], 2.31 µM (inactive); in experiment [9], 3.99 µM (inactive); in experiment [10] it was 2.29 µM (inactive); in [11] it was 2.26 µM (inactive); in [12], 3.33 µM (inactive). Moreover, the GI50 in [13] was 1.84 µM (inactive); in [14], 3.61 µM (inactive); in experiment [15] it was 1.89 µM (inactive); in experiment [16] it was 3 µM (inactive); in experiment [17], 7.71 µM; in [18] it was 2.13 µM (inactive). The GI50 was 15.8 µM (inactive) in [19] and 1.71 µM (inactive) in experiment [20].
On to `COc1ccc(/C=C2/N/C(=N\N=C/C(O)C(O)C(O)C(O)CO)NC2=O)cc1` (stereo not given), for which the GI50 was > 100 µM (inactive) in experiment [1]; > 100 µM (inactive) in experiment [2]; 62.1 µM (inactive) in experiment [3]; > 100 µM (inactive) in experiment [4]; 39.9 µM (inactive) and 39.4 µM (inactive) in [5]; > 100 µM (inactive) in experiment [6]. For the same compound, the GI50 in [7], in experiment [8], in experiment [9], in experiment [10], in experiment [11] and in [12] was > 100 µM (inactive) throughout. Besides, the GI50 is > 100 µM (inactive) in experiment [13]; > 100 µM (inactive) in experiment [14]; > 100 µM (inactive) in [15]; > 100 µM (inactive) in [16]; greater than 100 µM in experiment [17]; > 100 µM (inactive) in experiment [18]. The GI50 in experiment [19] and in [20] was > 100 µM (inactive) throughout.
`COc1ccc(/N=C(Nc2ccc(OC)cc2)/C(=N/c2ccc(OC)cc2)Nc2ccc(OC)cc2)cc1`: the GI50 in experiment [1], in experiment [2], in [3], in [4], in experiment [5] and in [6] was > 100 µM (inactive) in each case. Moreover, the GI50 is > 100 µM (inactive) in experiment [7]; > 100 µM (inactive) in [8]; 37.1 µM (inactive) in experiment [9]; > 100 µM (inactive) in experiment [10]; > 100 µM (inactive) in experiment [11]; > 100 µM (inactive) in experiment [12]. Besides, the GI50 was > 100 µM (inactive) in experiment [13]; > 100 µM (inactive) in experiment [14]; > 100 µM (inactive) in experiment [15]; > 100 µM (inactive) in experiment [16]; greater than 100 µM in experiment [17]; > 100 µM (inactive) in experiment [18]. In addition, the GI50 in experiment [19] and in experiment [20] was > 100 µM (inactive) each time.
Regarding `COC(=O)C1CCCCCCCCCCC12SCCCS2` (stereo not given), the GI50 in experiment [1] is 18.4 µM (inactive); in experiment [2] it was 18.6 µM (inactive); in [3], 35.7 µM (inactive); in [4] it was 19.4 µM (inactive); in experiment [5], 16.5 µM (inactive); in experiment [6] it was 23 µM (inactive). The GI50 in experiment [7] was 15.5 µM (inactive); in experiment [8], 25.3 µM (inactive); in experiment [9] it was 30.4 µM (inactive); in [10], 21.2 µM (inactive); in experiment [11], 19.4 µM (inactive); in [12], 20.7 µM (inactive). Besides, the GI50 in experiment [13] was 14.6 µM (inactive); in experiment [14] it was 37.2 µM (inactive); in experiment [15] it was 19 µM (inactive); in experiment [16], 20.1 µM (inactive); in experiment [17], 26.7 µM; in [18], 49.5 µM (inactive). Besides, the GI50 was 18.6 µM (inactive) in [19] and 17.7 µM (inactive) in experiment [20].
As to `CC(C)(C)OC(=O)N(CCCCNC(=O)c1ccccc1)CCCNC(=O)c1ccccc1`, the GI50 in experiment [1] is > 100 µM (inactive); in experiment [2] it was > 100 µM (inactive); in experiment [3], 74.3 µM (inactive); in [4] it was > 100 µM (inactive); in experiment [5] it was > 100 µM (inactive); in experiment [6], > 100 µM (inactive). For the same compound, the GI50 in [7] is > 100 µM (inactive); in experiment [8], > 100 µM (inactive); in experiment [9], > 100 µM (inactive); in experiment [10], > 100 µM (inactive); in experiment [11], > 100 µM (inactive); in experiment [12], 68.1 µM (inactive). The GI50 in experiment [13] was > 100 µM (inactive); in experiment [14], > 100 µM (inactive); in experiment [15], > 100 µM (inactive); in experiment [16], > 100 µM (inactive); in experiment [17], greater than 100 µM; in [18], > 100 µM (inactive). In addition, the GI50 in [19] and in experiment [20] was > 100 µM (inactive) each time.
Consider `CCOC(=O)/C=C1\C[C@H](NC(=O)OCc2ccccc2)C(=O)N1CC(=O)OCC`, for which the GI50 in experiment [1], in experiment [2], in experiment [3], in [4], in [5] and in experiment [6] was > 100 µM (inactive) each time. Besides, the GI50 in experiment [7], in experiment [8], in experiment [9], in experiment [10], in [11] and in [12] was > 100 µM (inactive) in each case. In addition, the GI50 is > 100 µM (inactive) in experiment [13]; > 100 µM (inactive) in experiment [14]; 61.2 µM (inactive) in [15]; > 100 µM (inactive) in experiment [16]; greater than 100 µM in experiment [17]; > 100 µM (inactive) in [18]. The GI50 in [19] and in experiment [20] was > 100 µM (inactive) in each case.

The values above are taken from ChEMBL document CHEMBL1201862, “PubChem BioAssay data set” (2004).
